Consider 1 molecule from publication PMC8975999, “Inhibition of RIPK1 by ZJU-37 promotes oligodendrocyte progenitor proliferation and remyelination via NF-κB pathway” (Cell Death Discovery, 2022).

As usually defined, the IC50 is the concentration that gives 50% inhibition. A higher IC50 goes with a need for much substance.

The assay has as its target T1, RIPK1 (receptor interacting serine/threonine protein kinase 1) (Homo sapiens, UniProt Q13546).
T1 construct: Flag-RIPK1 immunoprecipitated from HEK293T cells
T1 sequence (Q13546 1-671): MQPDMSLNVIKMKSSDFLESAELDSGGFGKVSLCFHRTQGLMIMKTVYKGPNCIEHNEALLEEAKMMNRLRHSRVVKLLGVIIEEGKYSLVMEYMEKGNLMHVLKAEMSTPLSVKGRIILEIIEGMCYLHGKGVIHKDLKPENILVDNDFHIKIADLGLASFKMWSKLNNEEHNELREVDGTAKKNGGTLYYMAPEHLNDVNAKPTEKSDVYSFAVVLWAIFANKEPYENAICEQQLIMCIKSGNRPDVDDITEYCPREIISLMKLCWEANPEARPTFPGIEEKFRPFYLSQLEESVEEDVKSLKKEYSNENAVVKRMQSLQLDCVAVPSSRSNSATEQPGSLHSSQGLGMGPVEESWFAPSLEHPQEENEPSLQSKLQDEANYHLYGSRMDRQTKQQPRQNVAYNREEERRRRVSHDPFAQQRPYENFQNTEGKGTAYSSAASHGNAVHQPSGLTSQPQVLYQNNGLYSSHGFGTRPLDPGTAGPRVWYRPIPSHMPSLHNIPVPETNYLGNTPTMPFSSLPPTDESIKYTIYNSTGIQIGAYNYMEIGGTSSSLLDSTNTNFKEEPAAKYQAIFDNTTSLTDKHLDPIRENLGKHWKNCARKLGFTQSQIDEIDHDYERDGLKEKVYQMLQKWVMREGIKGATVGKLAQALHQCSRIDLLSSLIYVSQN
Description: in vitro kinase assay on immunoprecipitated Flag-RIPK1 (Kinase-Glo; p-S166 western blot). In kind it is biochemical. (In general: Kinase-Glo measures the ATP left after a reaction by luminescence.)

For `CN1C(=O)[C@@H](Cc2c[nH]c3c(Cl)c(F)ccc23)N(C=O)C1=O` [ZJU-37], the IC50 was 366 nM.
